Holding throughout (format): biochemical
Test [1] concerns the target PI3Kα (Homo sapiens, UniProt P42336). The test is described as follows: PI3K-alpha fluorescence polarization assay. The settings on record: read-out: PI3Kα Median IC50. On the technique in general: Polarisation of emitted light reports the rotation of a fluorescent probe.
Test [2] addresses PI3Kγ (Homo sapiens, UniProt P48736). The test can be described thus: PI3K-gamma fluorescence polarization assay. To be noted: read-out: PI3Kγ Median IC50.
Test [3] has as its target mTOR (Homo sapiens, UniProt P42345). The test can be described thus: mTOR enzyme assay (DELFIA format, His6-S6K substrate). To be noted: read-out: mTOR Kinase Median IC50.

Chain of PI3Kα (P42336 whole entry, species assumed): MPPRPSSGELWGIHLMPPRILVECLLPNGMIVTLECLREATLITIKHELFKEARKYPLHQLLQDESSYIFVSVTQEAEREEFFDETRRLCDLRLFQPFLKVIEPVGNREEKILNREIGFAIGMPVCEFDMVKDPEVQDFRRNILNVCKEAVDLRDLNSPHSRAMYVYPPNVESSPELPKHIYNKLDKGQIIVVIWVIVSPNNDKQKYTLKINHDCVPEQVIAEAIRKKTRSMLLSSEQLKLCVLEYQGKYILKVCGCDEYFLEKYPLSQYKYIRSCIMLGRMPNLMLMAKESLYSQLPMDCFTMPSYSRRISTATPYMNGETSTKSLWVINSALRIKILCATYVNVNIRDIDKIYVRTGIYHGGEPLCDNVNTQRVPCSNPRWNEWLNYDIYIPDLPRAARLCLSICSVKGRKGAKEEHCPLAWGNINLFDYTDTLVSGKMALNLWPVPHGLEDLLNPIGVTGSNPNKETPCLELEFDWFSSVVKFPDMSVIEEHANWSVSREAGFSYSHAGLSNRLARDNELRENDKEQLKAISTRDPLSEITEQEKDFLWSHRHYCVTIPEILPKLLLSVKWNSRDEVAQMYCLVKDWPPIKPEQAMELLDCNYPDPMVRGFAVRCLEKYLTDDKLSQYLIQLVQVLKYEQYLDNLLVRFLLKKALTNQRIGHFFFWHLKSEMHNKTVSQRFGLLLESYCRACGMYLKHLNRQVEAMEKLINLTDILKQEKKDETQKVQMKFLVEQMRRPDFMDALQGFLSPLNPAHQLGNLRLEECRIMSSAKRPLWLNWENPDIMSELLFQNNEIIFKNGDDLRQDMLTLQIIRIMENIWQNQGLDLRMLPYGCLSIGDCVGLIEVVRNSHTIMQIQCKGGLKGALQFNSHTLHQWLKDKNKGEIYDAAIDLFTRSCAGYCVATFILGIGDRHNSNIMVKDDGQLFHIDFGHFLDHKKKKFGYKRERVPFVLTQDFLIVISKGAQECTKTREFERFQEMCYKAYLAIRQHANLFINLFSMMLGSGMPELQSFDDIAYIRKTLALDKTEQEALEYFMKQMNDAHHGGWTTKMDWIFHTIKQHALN
Chain of PI3Kα (P27986 whole entry partner, species assumed): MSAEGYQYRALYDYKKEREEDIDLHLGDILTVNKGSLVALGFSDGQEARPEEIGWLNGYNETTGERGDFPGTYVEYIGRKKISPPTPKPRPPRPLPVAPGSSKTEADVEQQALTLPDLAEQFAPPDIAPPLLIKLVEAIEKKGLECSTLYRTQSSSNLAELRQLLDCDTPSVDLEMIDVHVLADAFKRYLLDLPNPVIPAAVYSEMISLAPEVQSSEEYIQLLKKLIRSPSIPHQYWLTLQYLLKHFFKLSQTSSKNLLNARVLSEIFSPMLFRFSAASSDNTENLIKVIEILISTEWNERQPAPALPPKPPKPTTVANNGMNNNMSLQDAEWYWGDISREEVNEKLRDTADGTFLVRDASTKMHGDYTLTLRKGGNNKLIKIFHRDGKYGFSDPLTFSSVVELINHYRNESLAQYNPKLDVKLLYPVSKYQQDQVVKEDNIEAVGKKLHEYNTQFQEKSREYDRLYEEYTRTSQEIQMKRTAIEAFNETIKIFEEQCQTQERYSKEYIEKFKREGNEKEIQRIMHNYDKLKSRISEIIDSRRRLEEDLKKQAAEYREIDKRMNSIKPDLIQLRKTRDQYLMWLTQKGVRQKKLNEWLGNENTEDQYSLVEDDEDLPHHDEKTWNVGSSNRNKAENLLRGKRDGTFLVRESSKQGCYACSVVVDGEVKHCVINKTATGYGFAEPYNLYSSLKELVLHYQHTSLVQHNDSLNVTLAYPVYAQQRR
Chain of PI3Kγ (P48736 whole entry, species assumed): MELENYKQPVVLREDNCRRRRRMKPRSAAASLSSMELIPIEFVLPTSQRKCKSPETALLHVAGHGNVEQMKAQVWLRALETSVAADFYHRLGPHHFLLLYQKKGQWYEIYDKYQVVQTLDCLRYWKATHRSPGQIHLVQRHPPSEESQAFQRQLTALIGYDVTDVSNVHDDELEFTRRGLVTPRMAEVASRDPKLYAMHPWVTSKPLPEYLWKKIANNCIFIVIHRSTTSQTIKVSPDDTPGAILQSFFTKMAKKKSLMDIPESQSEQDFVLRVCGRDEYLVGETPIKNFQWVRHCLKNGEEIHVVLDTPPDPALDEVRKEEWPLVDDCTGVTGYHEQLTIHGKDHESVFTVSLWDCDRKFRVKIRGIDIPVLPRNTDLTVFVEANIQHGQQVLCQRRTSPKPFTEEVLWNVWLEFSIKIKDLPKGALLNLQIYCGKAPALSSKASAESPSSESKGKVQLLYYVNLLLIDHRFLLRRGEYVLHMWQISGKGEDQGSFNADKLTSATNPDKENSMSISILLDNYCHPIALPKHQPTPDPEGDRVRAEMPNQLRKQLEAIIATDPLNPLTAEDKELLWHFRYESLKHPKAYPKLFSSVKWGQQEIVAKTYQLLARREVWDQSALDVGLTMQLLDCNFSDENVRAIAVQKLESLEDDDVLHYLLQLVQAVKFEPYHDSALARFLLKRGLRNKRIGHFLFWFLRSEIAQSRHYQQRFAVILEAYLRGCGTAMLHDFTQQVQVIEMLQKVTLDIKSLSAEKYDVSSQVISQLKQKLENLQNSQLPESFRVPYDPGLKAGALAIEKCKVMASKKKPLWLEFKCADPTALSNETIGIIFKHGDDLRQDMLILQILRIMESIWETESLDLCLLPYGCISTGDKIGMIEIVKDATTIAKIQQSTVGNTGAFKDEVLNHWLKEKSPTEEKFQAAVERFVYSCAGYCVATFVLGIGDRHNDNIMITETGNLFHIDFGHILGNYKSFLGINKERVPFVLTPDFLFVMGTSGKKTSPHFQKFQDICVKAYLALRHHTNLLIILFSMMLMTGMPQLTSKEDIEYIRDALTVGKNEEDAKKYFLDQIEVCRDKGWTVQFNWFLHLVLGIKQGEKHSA

For orientation: IC50 means the point on the concentration scale where inhibition reaches its midpoint. On to “1-cyclopropyl-3-[(2Z)-2-{[1-methyl-4-(8-oxa-3-azabicyclo[3.2.1]oct-3-yl)-1H-pyrrolo[2,3-b]pyridin-3-yl]methylidene}-3-oxo-2,3-dihydro-1-benzofuran-5-yl]urea [Compound 237]”, for which the results for the IC50 in test [1], in test [2] and in test [3] were 289 nM, 2130 nM and 23 nM, respectively.
Regarding `Cn1cc(C=C2Oc3cc(O)cc(O)c3C2=O)c2cccnc21` [Compound 1, 4,6-dihydroxy-2-[(1-methyl-1H-pyrrolo[2,3-b]pyridin-3-yl)methylene]-1-benzofuran-3(2H)-one], the IC50 in test [1] was found to be 64 nM; in test [2], 168 nM; in test [3], 41.5 nM.
As for `COc1ccc2c(n1)c(C=C1Oc3cc(O)cc(O)c3C1=O)cn2C` [Compound 3, 4,6-dihydroxy-2-[(5-methoxy-1-methyl-1H-pyrrolo[3,2-b]pyridin-3-yl)methylene]-1-benzofuran-3(2H)-one], the values for the IC50 in test [1], in test [2] and in test [3] were 506 nM, more than 10000 nM and 685 nM, respectively.
On to `COc1ccc2c(n1)c(C=C1Oc3cccc(O)c3C1=O)cn2C` [Compound 5, 4-hydroxy-2-[(5-methoxy-1-methyl-1H-pyrrolo[3,2-b]pyridin-3-yl)methylene]-1-benzofuran-3(2H)-one], for which the results for the 50% inhibitory concentration (IC50) in test [1], in test [2] and in test [3] were 3930 nM, more than 10000 nM and more than 20000 nM, respectively.
Regarding `O=C1C(=Cc2c[nH]c3ncccc23)Oc2cc(O)cc(O)c21` [Compound 11, 4,6-dihydroxy-2-(1H-pyrrolo[2,3-b]pyridin-3-ylmethylene)-1-benzofuran-3(2H)-one], the results for the IC50 in test [1] and in test [3] were 525 nM and 1200 nM, respectively.
`Cn1cc(/C=C2\Oc3cc(O)cc(O)c3C2=O)c2c(-c3ccccc3Cl)ccnc21` [Compound 12, (2Z)-2-{[4-(2-chlorophenyl)-1-methyl-1H-pyrrolo[2,3-b]pyridin-3-yl]methylene}-4,6-dihydroxy-1-benzofuran-3(2H)-one]: the results for the 50% inhibitory concentration (IC50) in test [1], in test [2] and in test [3] were 167 nM, 270 nM and 2.8 nM, respectively.
As to `Cn1cc(/C=C2\Oc3cc(O)cc(O)c3C2=O)c2c(-c3cccc(Cl)c3)ccnc21` [Compound 13, (2Z)-2-{[4-(3-chlorophenyl)-1-methyl-1H-pyrrolo[2,3-b]pyridin-3-yl]methylene}-4,6-dihydroxy-1-benzofuran-3(2H)-one], the figures for the IC50 in test [1], in test [2] and in test [3] were 116 nM, 79 nM and 1.2 nM, respectively.
Consider `COc1ccccc1-c1ccnc2c1c(/C=C1\Oc3cc(O)cc(O)c3C1=O)cn2C` [Compound 14, (2Z)-4,6-dihydroxy-2-{[4-(2-methoxyphenyl)-1-methyl-1H-pyrrolo[2,3-b]pyridin-3-yl]methylene}-1-benzofuran-3(2H)-one], for which the half-inhibitory concentration (IC50) is 188 nM in test [1], 220 nM in test [2] and 1.4 nM in test [3].
Taken in the same sequence, the figures for `Cn1cc(/C=C2\Oc3cc(O)cc(O)c3C2=O)c2c(-c3ccc(OCCn4ccnc4)cc3)ccnc21` [Compound 16, (2Z)-4,6-dihydroxy-2-[(4-{4-[2-(1H-imidazol-1-yl)ethoxy]phenyl}-1-methyl-1H-pyrrolo[2,3-b]pyridin-3-yl)methylene]-1-benzofuran-3(2H)-one] were 24 nM, 247 nM and 5 nM.
For the compound `Cn1cc(/C=C2\Oc3cc(O)cc(O)c3C2=O)c2c(-c3ccc(S(N)(=O)=O)cc3)ccnc21` [Compound 17, 4-{3-[(Z)-(4,6-dihydroxy-3-oxo-1-benzofuran-2(3H)-ylidene)methyl]-1-methyl-1H-pyrrolo[2,3-b]pyridin-4-yl}benzenesulfonamide], the IC50 was 7 nM in test [1], 57 nM in test [2] and 0.3 nM in test [3].
In the case of `Cn1cc(/C=C2\Oc3cc(O)cc(O)c3C2=O)c2c(-c3cccc(NS(C)(=O)=O)c3)ccnc21` [Compound 18, N-(3-{3-[(Z)-(4,6-dihydroxy-3-oxo-1-benzofuran-2(3H)-ylidene)methyl]-1-methyl-1H-pyrrolo[2,3-b]pyridin-4-yl}phenyl)methanesulfonamide], the 50% inhibitory concentration (IC50) in test [1] came to 19 nM; in test [2] it was 106 nM; in test [3], 2.7 nM.
For the compound `Cn1cc(/C=C2\Oc3cc(O)cc(O)c3C2=O)c2c(-c3ccc(O)cc3)ccnc21` [Compound 19, (2Z)-4,6-dihydroxy-2-{[4-(4-hydroxyphenyl)-1-methyl-1H-pyrrolo[2,3-b]pyridin-3-yl]methylene}-1-benzofuran-3(2H)-one], the IC50 in test [1] amounted to 14 nM; in test [2], 35 nM; in test [3] it was 0.5 nM.
Take `Cn1cc(/C=C2\Oc3cc(O)cc(O)c3C2=O)c2c(-c3ccc(C(N)=NO)cc3)ccnc21` [Compound 20, 4-{3-[(Z)-(4,6-dihydroxy-3-oxo-1-benzofuran-2(3H)-ylidene)methyl]-1-methyl-1H-pyrrolo[2,3-b]pyridin-4-yl}-N′-hydroxybenzenecarboximidamide]: the figures for the IC50 in test [1], in test [2] and in test [3] were 6 nM, 44 nM and 0.2 nM, respectively.
As to `Cn1cc(/C=C2\Oc3cccc(O)c3C2=O)c2c(-c3cccc(S(N)(=O)=O)c3)ccnc21` [Compound 21, 3-{3-[(Z)-(4-hydroxy-3-oxo-1-benzofuran-2(3H)-ylidene)methyl]-1-methyl-1H-pyrrolo[2,3-b]pyridin-4-yl}benzenesulfonamide], the values for the IC50 in test [1], in test [2] and in test [3] were 34 nM, 140 nM and 3.5 nM, respectively.
Taken in the same sequence, the figures for `Cn1cc(/C=C2\Oc3cc(O)cc(O)c3C2=O)c2c(-c3ccccc3)ccnc21` [Compound 24, (2Z)-4,6-dihydroxy-2-[(1-methyl-4-phenyl-1H-pyrrolo[2,3-b]pyridin-3-yl)methylene]-1-benzofuran-3(2H)-one] were 95 nM, 93 nM and 0.5 nM.
Regarding `CN(C)S(=O)(=O)c1ccc(-c2ccnc3c2c(/C=C2\Oc4cccc(O)c4C2=O)cn3C)cc1` [Compound 180, 4-{3-[(Z)-(4-hydroxy-3-oxo-1-benzofuran-2(3H)-ylidene)methyl]-1-methyl-1H-pyrrolo[2,3-b]pyridin-4-yl}-N,N-dimethylbenzenesulfonamide], in test [3], the IC50 stood at 2.9 nM.
`Cn1cc(/C=C2\Oc3cccc(O)c3C2=O)c2c(-c3ccc(C(=O)NCCO)cc3)ccnc21` [Compound 182, N-(2-hydroxyethyl)-4-{3-[(Z)-(4-hydroxy-3-oxo-1-benzofuran-2(3H)-ylidene)methyl]-1-methyl-1H-pyrrolo[2,3-b]pyridin-4-yl}benzamide]: the IC50 in test [3] came out at 1.6 nM.
On to `CN(C)C(=O)CN(C)C(=O)C1CCN(c2ccnc3c2c(C=C2Oc4ccc(NC(=O)Nc5cccnc5)cc4C2=O)cn3C)CC1` [Compound 201, N-[2-(dimethylamino)-2-oxoethyl]-N-methyl-1-[1-methyl-3-({3-oxo-5-[(pyridin-3-ylcarbamoyl)amino]-1-benzofuran-2(3H)-ylidene}methyl)-1H-pyrrolo[2,3-b]pyridin-4-yl]piperidine-4-carboxamide], for which the IC50 in test [3] stood at 7.7 nM.
On the same count and under the same terms, then `Cn1cc(/C=C2\Oc3ccc(NC(=O)Nc4ccc(Cl)nc4)cc3C2=O)c2c(N3CC4CCC(C3)O4)ccnc21` [Compound 299, 1-(6-chloropyridin-3-yl)-3-[(2Z)-2-{[1-methyl-4-(8-oxa-3-azabicyclo[3.2.1]oct-3-yl)-1H-pyrrolo[2,3-b]pyridin-3-yl]methylidene}-3-oxo-2,3-dihydro-1-benzofuran-5-yl]urea], with 69 nM.

Values taken from patent publication US20090298820A1, “3-SUBSTITUTED-1H-PYRROLO[2,3-B]PYRIDINE AND 3-SUBSTITUTED-1H-PYRROLO[3,2-B]PYRIDINE COMPOUNDS, THEIR USE AS MTOR KINASE AND PI3 KINASE INHIBITORS, AND THEIR SYNTHESES” (Wyeth, priority 2008, published 2009).
